# According to ChEMBL document CHEMBL1136649, “Synthesis and antibacterial study of 10, 15, 20-triphenyl-5-(4-hydroxy-3-(trimethylammonium)methyl)phenylporphyrin as models for combination of porphyrin and alkylating agent” (2003):
# System: Staphylococcus aureus
# Assay: Minimum inhibitory concentration required against Staphylococcus aureus ATCC 25923
# Assay type: functional
row,SMILES,MIC [µM]
1,C[N+](C)(C)Cc1cc(-c2c3nc(c(-c4ccccc4)c4ccc([nH]4)c(-c4ccccc4)c4nc(c(-c5ccccc5)c5ccc2[nH]5)C=C4)C=C3)ccc1O,60
2,COc1ccc(-c2c3nc(c(-c4ccccc4)c4ccc([nH]4)c(-c4ccccc4)c4nc(c(-c5ccccc5)c5ccc2[nH]5)C=C4)C=C3)cc1C[N+](C)(C)C,240
3,CN(C)Cc1cc(-c2c3nc(c(-c4ccccc4)c4ccc([nH]4)c(-c4ccccc4)c4nc(c(-c5ccccc5)c5ccc2[nH]5)C=C4)C=C3)ccc1O,120
